Assay results from US20210346459A1, “Application of Dalargin for the prevention of VRIs and prevention of the development of complications during VRIs” (priority 2020, published 2021).
Where two headings read alike, the source gives them in different places. Marks after values point to notes of the source that are not given here. Square brackets hold non-standard residues; d marks the D form. Peptide text beside a SMILES is read from it.

Key:
[1] = administered by injection or infusion; cited from earlier work
[2] = test system: influenza virus A/Puerto Rico/8/34 (H1N1); conditions: for Virus titer PR8 (influenza virus): virus control 5.5
[3] = test system: influenza virus A; type: in vivo, human
[4] = test system: human adenovirus 5; conditions: for Virus titer Ad5 (adenovirus): virus control 4.5
[5] = in vitro; conditions: dog
[6] = test system: influenza virus A/California/04/2009; type: in vivo, mice
[7] = test system: influenza; type: in vivo, human; conditions: Example 9, 4 relatives; 0.02% solution inhaled once a day, 1 mg/day; 7 days
[8] = in vitro; conditions: African green monkey
[9] = application to skin or mucosae at any concentration; cited from earlier work
[10] = Effect of low pH acetate buffer on antiviral and immunotropic activity; conditions: low pH acetate-based buffer solution; nose, nasopharynx, oropharynx, oral cavity or sublingual
Description: The preferred type of buffer salts is acetate buffer, which contains sodium acetate and acetic acid, with a preferred pH value of 4.0-5.5. Citrate buffer can also be used. […] Additionally, a physiologically active buffer on the basis of sodium hydrogen phosphate dihydrate and sodium dihydrogen phosphate dihydrate can be used; however, this buffer is not sufficiently efficient in the pH range from 4.0 to 5.5 in terms of its buffer capacity.

[11] = Clinical testing of inhalation: cough and shortness of breath; type: in vivo, human
Description: Mu and delta receptors are found in the cough centre of the medulla, and systemic application of […] of these receptors inhibits the cough reflex. This usually also affects other organs and zones of the brain that contain opioid receptors. Additionally, since receptors of this group are found in peripheral neural pathways, Dalargin can also affect the conduction of signals along these neural pathways. Dalargin inhalation mostly produces local effects of short-lived metabolites of the peptide on peripheral opioid receptors, which manifests itself in reduced response of receptor cells to stimulation and reduced intensity of the signal transmitted to the cough centre. […] A certain local analgesic effect also improves the overall condition of the patient. […] This, in turn, alleviates the irritation of the respiratory tract, reduces the loss of the inhaled product due to coughing and improves the patients' quality of life.
Shortness of breath is one of the most common symptoms of VRIs. The patient is often unable to perform the most basic actions without experiencing shortness of breath, panting, and a sensation of lacking air. Descriptions of various methods of the treatment of shortness of breath report positive effects of systemic administration of certain opioid receptor agonists. […] Systemically administered opioids are also recommended for treating shortness of breath in such patients, but side effects may limit their use. Despite the positive effect, uses of such therapies are severely limited due to typical side effects and restrictions on the sales of opioid drugs. Inhalation of Dalargin is additionally associated with improved quality of respiration. […] Unlike classical opioids, these metabolites are short-lived and only act locally, in the zone where the inhaled aerosol is deposited in the lungs, predominantly in the larynx, bronchi and trachea.

[12] = in vivo; cited from earlier work
[13] = Example 10, patient V, A/California/07/2009 (H1N1), 0.1% solution inhaled twice a day, 4 mg/day, with Oseltamivir
[14] = Group 4: nasally once a day 0.2 mg/kg, concentration 0.08%
[15] = Group 4: nasally once a day 0.2 mg/kg, concentration 0.08%, 30 animals
[16] = Group 5: nasally and posterior pharyngeal wall (PS) once daily 0.5 mg/kg, concentration 0.1%
[17] = Group 5: nasally and posterior pharyngeal wall (PS) once daily 0.5 mg/kg, concentration 0.1%, 30 animals
[18] = Group 6: inhalation of 1% solution 40 min once a day, 0.5 mg/kg
[19] = Group 6: inhalation of 1% solution 40 min once a day, 0.5 mg/kg, 30 animals
[20] = Group 7: inhalation of 3% solution 45 min once a day, 1.74 mg/kg
[21] = Group 7: inhalation of 3% solution 45 min once a day, 1.74 mg/kg, 30 animals
[22] = Group 9: inhalation of 3% solution 45 min twice a day, prophylactic only
[23] = Group 9: inhalation of 3% solution 45 min twice a day, prophylactic only, 30 animals
[24] = Group 10: nasally + pharyngeal spray (PS) 0.5 mg/kg once a day, prophylactic only
[25] = Group 10: nasally + pharyngeal spray (PS) 0.5 mg/kg once a day, prophylactic only, 30 animals

Which Mean elimination half-life [1] does the source give for `CC(C)C[C@H](NC(=O)[C@H](Cc1ccccc1)NC(=O)CNC(=O)[C@@H](C)NC(=O)[C@@H](N)Cc1ccc(O)cc1)C(=O)N[C@@H](CCCNC(=N)N)C(=O)O` [Dalargin, tyrosyl-D-alanyl-glycyl-phenylalanyl-leucyl-arginine diacetate] (H-Y[dA]GFLR-OH) here?
Its Mean elimination half-life is 12 min.

What about the “Virus titer PR8 (influenza virus)” value ([2]; 0.4 μg/mL) of the same compound?
Its value is 5.5 lg TCID50/0.1 mL.

What about the “Virus titer PR8 (influenza virus)” value ([2]; 1.1 μg/mL) of the same compound?
Its value is 5.0 lg TCID50/0.1 mL.

And the “Virus titer PR8 (influenza virus)” value ([2]; 3.3 μg/mL)?
The value was 5.0 lg TCID50/0.1 mL.

And the “Virus titer PR8 (influenza virus)” value ([2]; 10 μg/mL)?
The value was 4.5 lg TCID50/0.1 mL.

What about the “Virus titer PR8 (influenza virus)” value ([2]; 30 μg/mL) of the same compound?
The value was 4.0 lg TCID50/0.1 mL.

And the SI ([2]; CC50/IC50, PR8 (influenza virus))?
Its SI is >37.5.

What about the IC50 ([2]; PR8 (influenza virus), MDCK) of the same compound?
The IC50 was 0.8 µg/mL.

What about the “Antiviral properties (in words)” value ([2]; influenza virus, MDCK) of the same compound?
Its value is “dose-dependent reduction of the infectious activity”.

What about the “Complete resolution of symptoms, day after start of therapy” value ([3]; Example 8, patient K, influenza pneumonia A/Aichi/2/68 (H3N2), 0.02% solution inhaled twice a day, 1 mg/day, with Oseltamivir 75 mg twice a day) of the same compound?
The value was 7 days.

What about the Duration of fever [3, 13] of the same compound?
The Duration of fever was 3 days.

And the “Duration of intoxication symptoms” value [3, 13]?
Its value is 2 days.

And the “Duration of the disease as a whole (complete resolution of symptoms)” value [3, 13]?
The value was 5 days.

What about the IC50 [4] of the same compound?
The IC50 was 2.5 µg/mL.

What about the “Virus titer Ad5 (adenovirus)” value ([4]; 0.4 μg/mL) of the same compound?
Its value is 4.5 lg TCID50/0.1 mL.

What about the “Virus titer Ad5 (adenovirus)” value ([4]; 1.1 μg/mL) of the same compound?
Its value is 4.5 lg TCID50/0.1 mL.

What about the “Virus titer Ad5 (adenovirus)” value ([4]; 3.3 μg/mL) of the same compound?
Its value is 4.0 lg TCID50/0.1 mL.

And the “Virus titer Ad5 (adenovirus)” value ([4]; 10 μg/mL)?
The value was 4.0 lg TCID50/0.1 mL.

What about the “Virus titer Ad5 (adenovirus)” value ([4]; 30 μg/mL) of the same compound?
The value was 3.5 lg TCID50/0.1 mL.

What about the SI ([4]; CC50/IC50, Ad5 (adenovirus)) of the same compound?
The SI was 12.

And the “Antiviral properties (in words)” value ([4]; adenovirus, Vero)?
The value was “dose-dependent reduction of the infectious activity”.

And the CC50 [5]?
The CC50 was ≥ 30 µg/mL.

And the “Mortality, %” value [6, 14]?
Its value is 56.67%.

And the “Protective index, %” value [6, 14]?
The value was 41.38%.

What about the “Mortality by day 5” value [6, 15] of the same compound?
Its value is 2.

And the “Mortality by day 6” value [6, 15]?
The value was 4.

What about the “Mortality by day 7” value [6, 15] of the same compound?
Its value is 9.

And the “Mortality by day 9” value [6, 15]?
Its value is 1.

And the “Mortality by day 11” value [6, 15]?
The value was 1.

What about the Residue [6, 15] of the same compound?
Its Residue is 13.

What about the “Mortality, %” value [6, 16] of the same compound?
Its value is 40.00%.

What about the “Protective index, %” value [6, 16] of the same compound?
Its value is 58.62%.

And the “Mortality by day 6” value [6, 17]?
The value was 1.

What about the “Mortality by day 7” value [6, 17] of the same compound?
The value was 2.

What about the “Mortality by day 8” value [6, 17] of the same compound?
The value was 3.

And the “Mortality by day 9” value [6, 17]?
The value was 5.

And the “Mortality by day 10” value [6, 17]?
The value was 1.

What about the Residue [6, 17] of the same compound?
The Residue was 18.

What about the “Mortality, %” value [6, 18] of the same compound?
Its value is 6.67%**.

What about the “Protective index, %” value [6, 18] of the same compound?
Its value is 93.10%.

And the “Mortality by day 7” value [6, 19]?
The value was 1.

What about the “Mortality by day 8” value [6, 19] of the same compound?
The value was 1.

What about the Residue [6, 19] of the same compound?
The Residue was 28.

And the “Mortality, %” value [6, 20]?
The value was 10.00%**.

And the “Protective index, %” value [6, 20]?
The value was 89.66%.

And the “Mortality by day 7” value [6, 21]?
Its value is 1.

And the “Mortality by day 8” value [6, 21]?
The value was 1.

And the “Mortality by day 9” value [6, 21]?
Its value is 1.

What about the Residue [6, 21] of the same compound?
Its Residue is 27.

What about the “Mortality, %” value [6, 22] of the same compound?
Its value is 30.00%.

And the “Protective index, %” value [6, 22]?
Its value is 68.97%.

What about the “Mortality by day 6” value [6, 23] of the same compound?
Its value is 2.

What about the “Mortality by day 7” value [6, 23] of the same compound?
The value was 3.

What about the “Mortality by day 8” value [6, 23] of the same compound?
The value was 2.

And the “Mortality by day 9” value [6, 23]?
The value was 2.

And the Residue [6, 23]?
The Residue was 21.

What about the “Mortality, %” value [6, 24] of the same compound?
Its value is 46.67%.

And the “Protective index, %” value [6, 24]?
The value was 51.72%.

And the “Mortality by day 5” value [6, 25]?
Its value is 2.

And the “Mortality by day 6” value [6, 25]?
The value was 4.

What about the “Mortality by day 7” value [6, 25] of the same compound?
The value was 2.

What about the “Mortality by day 8” value [6, 25] of the same compound?
Its value is 3.

And the “Mortality by day 9” value [6, 25]?
The value was 2.

What about the “Mortality by day 10” value [6, 25] of the same compound?
Its value is 1.

And the Residue [6, 25]?
The Residue was 16.

What about the “Efficacy compared with other antiviral drugs (Ingavirin, Arbidol)” value ([6]; administered by inhalation, prevention of influenza pneumonia) of the same compound?
Its value is “superior to other antiviral drugs”.

And the “Protective effect against infection, share of animals” value ([6]; preventive administration, depending on the route of administration)?
Its value is 50-70%.

What about the “Signs or symptoms of influenza in household contacts” value [7] of the same compound?
The value was “None of the relatives of patient V who were in contact with them exhibited catarrhal signs, hyperthermia or other signs or symptoms of influenza”.

What about the CC50 [8] of the same compound?
The CC50 was ≥ 30 µg/mL.

And the Local irritation [9]?
Its Local irritation is “does not produce local irritation”.

What about the “Fold higher specific antiviral and immunotropic activity” value [10] of the same compound?
Its value is 2-4 times.

And the “Duration of reduced coughing severity” value [11]?
The value was 2 to 4 h.

And the “Cough reported by patients” value ([11]; clinical testing)?
Its value is “alleviation or elimination of cough”.

And the Shortness of breath ([11]; investigational clinical use)?
The Shortness of breath was “significantly reduced shortness of breath”.

And the LD50 [12]?
The LD50 was 2500 mg/kg.
